According to patent US20200046712A1, “PROCESS FOR MAKING 1,3,7- TRIMETHYLURIC ACID WATER SOLUBLE SALTS OR CO-CRYSTALS AND THEIR USAGE IN DIETARY SUPPLEMENTS OR FUNCTIONAL FOODS FORMULATIONS” (Arcadia Biotechnology Ltd., priority 2018, published 2020):
Where a name gives a salt, the structure may show the parent alone.

Assay: Solubility in water
Format: physicochemical
Settings: 500 mg upon stirring in 8 oz of room temperature water

solubility in water: dissolved completely
SMILES: Cn1c(=O)c2c([nH]c(=O)n2C)n(C)c1=O [1,3,7-trimethyluric acid sodium salt]
